Laboratory results as given in patent US5747448A, “Derivatives of cyclodepsipeptide PF 1022” (Meiji Seika Kaisha, Ltd., priority 1993, dated 1998).

Key:
fowl roundworms = experiment: Fowl Roundworm Eliminating Test; assay type: in vivo; conditions: infected fowls, worms counted to day 7
Protocol: Test 1 Fowl Roundworm Eliminating Test Fowls (three fowls per group), which had been artificially infected with fowl roundworms and whose infection therewith had been confirmed by scatoscopy, were used as experimental animals. Upon administration of each test substance, the test substance weighed in a dose (mg) accurately calculated on the basis of the body weight (kg) of each fowl was suspended in carboxymethylcellulose-containing water, and the resulting suspension was administered orally as a single dose unit using a stomach tube. After the administration, the worms eliminated from the fowls were counted daily. Seven days after the administration, the fowl was sacrificed and autopsied and the worms remaining in its intestinal tract were counted. The percent elimination was calculated in accordance with the following calculation equation: [formula] Each test substance is indicated by the corresponding substance code name shown above in Table 1.

Haemonchus contortus = experiment: In vivo Anthelmintic Activity Test on Nematodes in sheep (egg excretion); design: key: "0" when there were no anthelmintic activities; "2" when excretion of parasite's eggs was observed; "3" when excretion of parasite's eggs stopped, that is, parasitic worms were removed completely; conditions: parasitic worms H, oral gelatin capsule, 0.05 mg/kg
Text: (§1) Test 2 In vivo Anthelmintic Activity Test on Nematodes To each sheep which had artificially been infected with Trichostrongylus colubriformis (hereinafter abbreviated as "T") and Haemonchus contortus (hereinafter abbreviated as […]), respectively, a test substance weighed in a dose accurately calculated from the weight […] of the sheep was orally administered in the form of a gelatin capsule. The number of parasite's eggs excreted with feces from the sheep was counted quantitatively before and after the administration so that the degree of anthelmintic effects was determined. The anthelmintic effects are evaluated by rated numeral 0, 1, 2 or 3. The anthelmintic effects are rated "0" when there were no anthelmintic activities, "2" when excretion of parasite's eggs was observed, and "3" when excretion of parasite's eggs stopped, that is, parasitic worms were removed completely.

[1] = test system: Trichostrongylus colubriformis; experiment: as above; design: key: "0" when there were no anthelmintic activities; "2" when excretion of parasite's eggs was observed; "3" when excretion of parasite's eggs stopped, that is, parasitic worms were removed completely; conditions: parasitic worms T, oral gelatin capsule, 0.5 mg/kg
Text: as §1

[2] = test system: Nippostrongylus brasillensis; experiment: Anthelmintic effects on a rat intestinal nematode (N. brasillensis-infected rats); assay type: in vivo; conditions: male Wistar rats; for Number of remaining worms (average value ± SD): 10 mg/kg p.o. 7 days after inoculation, autopsy 10 days after inoculation; for % Effectiveness: 10 mg/kg p.o., compared with infected control group
Protocol: Anthelmintic effects of certain PF1022 derivatives on a rat intestinal nematode were tested in accordance with the following method.
Sixteen male Wistar rats were divided into eight groups (two rats per group), and about 2,000 larval worms of Nippostrongylus brasillensis were hypodermically inoculated per rat. Seven days after the inoculation, PF1022, PF1022E, PF1022-002, PF1022-003, PF1022-209, PF1022-218 and PF1022-219 were, as test substances, forcedly administered p.o. to the rats in the groups, respectively, in an amount of 10 mg/kg per rat. Upon administration, each test substance (8 mg) was dissolved in 0.2 ml of dimethyl sulfoxide and then, the resultant solution was diluted with distilled water to give a 2 ml suspension. Ten days after the inoculation,the rats were each subjected to autopsy and imaginal worms parasitic on the small intestines were counted.
As the test results, the average of remaining worms in each of the eight groups and the percent effectiveness of the test substance in each group as compared with that of the infected control group are shown in Table 4.

SMILES: CC(C)C[C@H]1C(=O)O[C@H](Cc2ccccc2)C(=O)N(C)[C@@H](CC(C)C)C(=O)O[C@H](C)C(=O)N(C)[C@@H](CC(C)C)C(=O)O[C@H](Cc2ccccc2)C(=O)N(C)[C@@H](CC(C)C)C(=O)O[C@H](C)C(=O)N1C [PF1022, Cyclo-(L-MeLeu-D-Lac-L-MeLeu-D-PhLac-L-MeLeu-D-Lac-L-MeLeu-D-PhLac), reference compound]
- % Elimination (fowl roundworms; single oral dose 0.5 mg/kg): 50-70%
- % Elimination (fowl roundworms; single oral dose 1.0 mg/kg): 60-86%
- % Elimination (fowl roundworms; single oral dose 2.0 mg/kg): 100%
- Degree of effects (Haemonchus contortus): 3
- Degree of effects [1]: 3
- Number of remaining worms (average value ± SD) [2]: 403 ± 32.5
- % Effectiveness ([2]; 10 mg/kg): 80%
- % Effectiveness ([2]; listed as PF 1022, 10 mg/kg): 80.2%

SMILES: CC(C)C[C@@H]1NC(=O)[C@@H](C)OC(=O)[C@H](CC(C)C)N(C)C(=O)[C@@H](Cc2ccccc2)OC(=O)[C@H](CC(C)C)NC(=O)[C@@H](C)OC(=O)[C@H](CC(C)C)N(C)C(=O)[C@@H](Cc2ccccc2)OC1=O [PF1022-219, cyclo-(L-MeLeu-D-Lac-L-Leu-D-PhLac)2]
- Degree of effects [1]: 3
- Number of remaining worms (average value ± SD) [2]: 2084.5
- % Effectiveness [2]: 0%
